Reference: PubChem BioAssay AID330 (DTP/NCI, 2004)
“And” between values parts separate entries of the source, which are not always exact repeats. Equal values may be shown once. Toxic doses and inconclusive results are not listed. How the source made its calls: active means survival T/C of 150% or more; inactive means T/C below 125% in these data.

Tested on: P388 leukemia ip, CD2F1 mice, survival T/C
Test: NCI In Vivo Anticancer Drug Screen. Data for tumor model P388 Leukemia (intraperitoneal) in CD2F1 (CDF1) mice
Conditions: endpoint: median survival time, higher = longer survival
Procedure, shortened: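 Mice carrying the transplanted tumor received test compound or vehicle. Survival was recorded in each group, and the value is the treated-group measurement divided by that of the vehicle-treated control group.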

[1] = dose: 25.0 mg/kg/injection, schedule: Q01DX001 (ip), vehicle: Klucel (hydroxypropylcellulose) (HPC)
[2] = dose: 100.0 mg/kg/injection, schedule: Q01DX001 (ip), vehicle: Klucel (hydroxypropylcellulose) (HPC)
[3] = dose: 200.0 mg/kg/injection, schedule: Q01DX001 (ip), vehicle: Klucel (hydroxypropylcellulose) (HPC)
[4] = dose: 400.0 mg/kg/injection, schedule: Q01DX001 (ip), vehicle: Klucel (hydroxypropylcellulose) (HPC)
[5] = dose: 100.0 mg/kg/injection, schedule: Q04DX002 (ip), vehicle: saline with Tween-80
[6] = dose: 200.0 mg/kg/injection, schedule: Q04DX002 (ip), vehicle: saline with Tween-80
[7] = dose: 50.0 mg/kg/injection, schedule: Q01DX005 (ip), vehicle: Klucel (hydroxypropylcellulose) (HPC)
[8] = dose: 100.0 mg/kg/injection, schedule: Q01DX005 (ip), vehicle: Klucel (hydroxypropylcellulose) (HPC)
[9] = dose: 200.0 mg/kg/injection, schedule: Q01DX005 (ip), vehicle: Klucel (hydroxypropylcellulose) (HPC)
[10] = dose: 25.0 mg/kg/injection, schedule: Q01DX005 (ip), vehicle: Klucel (hydroxypropylcellulose) (HPC)
[11] = dose: 60.0 mg/kg/injection, schedule: Q01DX005 (ip), vehicle: saline with Tween-80
[12] = dose: 120.0 mg/kg/injection, schedule: Q01DX005 (ip), vehicle: saline with Tween-80
[13] = dose: 25.0 mg/kg/injection, schedule: Q01DX009 (ip), vehicle: saline with Tween-80
[14] = dose: 50.0 mg/kg/injection, schedule: Q01DX009 (ip), vehicle: saline with Tween-80
[15] = dose: 100.0 mg/kg/injection, schedule: Q01DX009 (ip), vehicle: saline with Tween-80

Measured: T/C

Cc1ccc(S(=O)(=O)N/N=C/c2cc([N+](=O)[O-])ccc2O)cc1
inactive: dose: 12.5 mg/kg/injection, schedule: Q01DX005 (ip), vehicle: distilled water + Tween-80 93 % of control | dose: 25.0 mg/kg/injection, schedule: Q01DX005 (ip), vehicle: distilled water + Tween-80 100 % of control | dose: 50.0 mg/kg/injection, schedule: Q01DX005 (ip), vehicle: distilled water + Tween-80 112 % of control | dose: 100.0 mg/kg/injection, schedule: Q01DX005 (ip), vehicle: distilled water + Tween-80 105 % of control

O=C1CCCCCCCCC1O (stereo not given)
inactive: dose: 100.0 mg/kg/injection, schedule: Q04DX003 (ip), vehicle: saline with Tween-80 106 % of control | dose: 200.0 mg/kg/injection, schedule: Q04DX003 (ip), vehicle: saline with Tween-80 108 % of control | dose: 400.0 mg/kg/injection, schedule: Q04DX003 (ip), vehicle: saline with Tween-80 110 % of control

COC(=O)C1=CCN2CCCC12C (stereo not given)
inactive: dose: 25.0 mg/kg/injection, schedule: Q01DX001 (ip), vehicle: saline 97 % of control | dose: 50.0 mg/kg/injection, schedule: Q01DX001 (ip), vehicle: saline 101 % of control | dose: 100.0 mg/kg/injection, schedule: Q01DX001 (ip), vehicle: saline 105 % of control

CC(C)CNC(=O)C(=O)NCC(C)C
inactive: [1] 98 % of control | dose: 50.0 mg/kg/injection, schedule: Q01DX001 (ip), vehicle: Klucel (hydroxypropylcellulose) (HPC) 101 % of control | [2] 101 % of control

c1ccc(-c2nnc3c4[nH]c5ccccc5c4cnn23)cc1
inactive: [2] 105 % of control | [3] 105 % of control | [4] 99 % of control

NC(=O)N=Nc1c(F)c(F)c(F)c(F)c1F
inactive: dose: 6.25 mg/kg/injection, schedule: Q01DX005 (ip), vehicle: saline with Tween-80 103 % of control | dose: 12.5 mg/kg/injection, schedule: Q01DX005 (ip), vehicle: saline with Tween-80 106 % of control | dose: 25.0 mg/kg/injection, schedule: Q01DX005 (ip), vehicle: saline with Tween-80 116 % of control | dose: 50.0 mg/kg/injection, schedule: Q01DX005 (ip), vehicle: saline with Tween-80 116 % of control | dose: 100.0 mg/kg/injection, schedule: Q01DX005 (ip), vehicle: saline with Tween-80 113 % of control

S=c1[nH]c(N2CCOCC2)ncc1-c1ccccc1
inactive: [5] 99 % of control | [6] 99 % of control

c1ccc(Cn2cccc/c2=N/C(=NC2CCCCC2)NC2CCCCC2)cc1
inactive: dose: 1.56 mg/kg/injection, schedule: Q01DX001 (ip), vehicle: Klucel (hydroxypropylcellulose) (HPC) 105 % of control | dose: 3.12 mg/kg/injection, schedule: Q01DX001 (ip), vehicle: Klucel (hydroxypropylcellulose) (HPC) 99 % of control | dose: 6.25 mg/kg/injection, schedule: Q01DX001 (ip), vehicle: Klucel (hydroxypropylcellulose) (HPC) 99 % of control | [1] 98 % of control

NC(=S)n1nc(-c2ccccc2)c(N=Nc2cc(Cl)ccc2Cl)c1-c1ccccc1
inactive: [5] 89 % of control | [6] 90 % of control | dose: 400.0 mg/kg/injection, schedule: Q04DX002 (ip), vehicle: saline with Tween-80 110 % of control

Nc1nc(-c2cc(-c3cccs3)nc(N)n2)cc(-c2cccs2)n1
inactive: dose: 60.0 mg/kg/injection, schedule: Q01DX005 (ip), vehicle: saline 97 % of control | dose: 120.0 mg/kg/injection, schedule: Q01DX005 (ip), vehicle: saline 100 % of control

c1ccc2nc(N3CCCC3)c(N3CCCCC3)nc2c1
inactive: [7] 102 % of control | [8] 94 % of control | [9] 100 % of control

CN1C2C=C(c3ccc(C(F)(F)F)cc3)CC1CC2 (stereo not given)
inactive: [10] 100 % of control and 107 % of control | [7] 106 % of control | dose: 50.0 mg/kg/injection, schedule: Q01DX005 (ip), vehicle: saline 102 % of control | [8] 98 % of control | dose: 100.0 mg/kg/injection, schedule: Q01DX005 (ip), vehicle: saline 104 % of control

CCOC(=O)/C(Cl)=C(\C)Nc1nc2c(ccc3ccccc32)s1
inactive: [11] 98 % of control | [12] 90 % of control

O=C1C=CC(=Nc2cccc3c(N=C4C=CC(=O)O4)cccc23)O1
inactive: [10] 107 % of control | [7] 111 % of control | [8] 115 % of control

O=C(COc1ccc(Cl)cc1Cl)Oc1c(Cl)c(Cl)c(Cl)c(Cl)c1Cl
inactive: [13] 91 % of control | [14] 91 % of control | [15] 91 % of control

NNC(=O)CC(N)C(=O)O (stereo not given)
inactive: dose: 25.0 mg/kg/injection, schedule: Q01DX009 (ip), vehicle: saline 100 % of control | [14] 110 % of control | dose: 50.0 mg/kg/injection, schedule: Q01DX009 (ip), vehicle: saline 105 % of control and 122 % of control | [15] 108 % of control | dose: 100.0 mg/kg/injection, schedule: Q01DX009 (ip), vehicle: saline 109 % of control and 122 % of control | dose: 200.0 mg/kg/injection, schedule: Q01DX009 (ip), vehicle: saline with Tween-80 117 % of control | dose: 200.0 mg/kg/injection, schedule: Q01DX009 (ip), vehicle: saline 116 % of control | dose: 400.0 mg/kg/injection, schedule: Q01DX009 (ip), vehicle: saline 107 % of control

CCCn1c(Cl)c(C=O)c2ccccc21
inactive: [2] 104 % of control | [3] 98 % of control | [4] 97 % of control

[Cl][Cu][Cl]
inactive: dose: 3.13 mg/kg/injection, schedule: Q04DX003 (ip), vehicle: saline 90 % of control | dose: 6.25 mg/kg/injection, schedule: Q04DX003 (ip), vehicle: saline 104 % of control

COc1ccccc1-n1c(=O)c(N=Nc2ccccc2)c(O)n(-c2ccccc2Cl)c1=S
inactive: [2] 97 % of control | [3] 95 % of control | [4] 94 % of control

Cc1nc2oc(=O)cc(C)c2c(=O)[nH]1
inactive: dose: 60.0 mg/kg/injection, schedule: Q01DX005 (ip), vehicle: Klucel (hydroxypropylcellulose) (HPC) 91 % of control | dose: 120.0 mg/kg/injection, schedule: Q01DX005 (ip), vehicle: Klucel (hydroxypropylcellulose) (HPC) 96 % of control

COc1cc(C(=O)NC(=S)Nc2csc(-c3ccc(F)cc3)n2)cc(OC)c1OC
inactive: [7] 100 % of control | [8] 94 % of control | [9] 90 % of control

CCCC1CCC(=C2C(=O)CCC2=O)O1 (stereo not given)
inactive: dose: 25.0 mg/kg/injection, schedule: Q04DX002 (ip), vehicle: saline 102 % of control | dose: 50.0 mg/kg/injection, schedule: Q04DX002 (ip), vehicle: saline 102 % of control | [5] 110 % of control | dose: 100.0 mg/kg/injection, schedule: Q04DX002 (ip), vehicle: saline 103 % of control | [6] 102 % of control | dose: 200.0 mg/kg/injection, schedule: Q04DX002 (ip), vehicle: saline 100 % of control

Cc1nc(C(=O)N=C(N)N)c(N)nc1-c1ccccc1
inactive: dose: 15.0 mg/kg/injection, schedule: Q01DX005 (ip), vehicle: saline with Tween-80 106 % of control | dose: 30.0 mg/kg/injection, schedule: Q01DX005 (ip), vehicle: saline with Tween-80 104 % of control | [11] 100 % of control

CCC(=N\N=C(N)N)/C(CC)=N/N=C(N)N
inactive: [11] 101 % of control | [12] 97 % of control

OC1(c2ccc(-c3ccc(-c4ccc(C5(O)C(c6ccccc6)=C(c6ccccc6)C(c6ccccc6)=C5c5ccccc5)cc4)cc3)cc2)C(c2ccccc2)=C(c2ccccc2)C(c2ccccc2)=C1c1ccccc1
inactive: dose: 100.0 mg/kg/injection, schedule: Q04DX003 (ip), vehicle: Klucel (hydroxypropylcellulose) (HPC) 93 % of control | dose: 200.0 mg/kg/injection, schedule: Q04DX003 (ip), vehicle: Klucel (hydroxypropylcellulose) (HPC) 90 % of control | dose: 400.0 mg/kg/injection, schedule: Q04DX003 (ip), vehicle: Klucel (hydroxypropylcellulose) (HPC) 93 % of control

CCCCCCCCCCCCCCCc1nc(SCC(=O)OC)n[nH]1
inactive: [11] 99 % of control | [12] 99 % of control | dose: 240.0 mg/kg/injection, schedule: Q01DX005 (ip), vehicle: saline with Tween-80 98 % of control

CC(C)CNc1ccc(S(=O)(=O)c2ccc(NCC(C)C)c([N+](=O)[O-])c2)cc1[N+](=O)[O-]
inactive: dose: 6.25 mg/kg/injection, schedule: Q01DX009 (ip), vehicle: saline with Tween-80 98 % of control | dose: 12.5 mg/kg/injection, schedule: Q01DX009 (ip), vehicle: saline with Tween-80 92 % of control | [13] 87 % of control | [14] 93 % of control
